From PMC6271976, “Inhibition of Human Cytochrome P450 Enzymes by Bacopa monnieri Standardized Extract and Constituents” (Molecules, 2014) come the findings set out here.

Some results are limits rather than exact numbers.

In data set [1] the target is CYP3A4 (Homo sapiens, UniProt P08684). As to the kind of experiment: Luminescent P450-Glo recombinant human CYP3A4 inhibition assay. From the text: (§1) The inhibitory effects of B. monnieri standardized extract and the constituents bacoside A, bacoside A3, bacopaside II, bacopaside X, bacopasaponin C and bacopaside I on human cytochrome P450 enzyme were examined using an in vitro luminescent assay. The P450-Glo™ substrates are converted by CYP enzymes to a luciferin product that reacts with a Luciferin Detection Reagent to produce light. The amount of light produced is directly proportional to the CYP enzyme activity. The net signals from untreated (added with buffer or solvent) CYP reactions represent total CYP activity (without any inhibition = 100%). […] The test compounds that inhibit CYP enzymes caused a reduction in CYP activity and therefore generated less light/signal.
Chain of CYP3A4 (P08684 2-503): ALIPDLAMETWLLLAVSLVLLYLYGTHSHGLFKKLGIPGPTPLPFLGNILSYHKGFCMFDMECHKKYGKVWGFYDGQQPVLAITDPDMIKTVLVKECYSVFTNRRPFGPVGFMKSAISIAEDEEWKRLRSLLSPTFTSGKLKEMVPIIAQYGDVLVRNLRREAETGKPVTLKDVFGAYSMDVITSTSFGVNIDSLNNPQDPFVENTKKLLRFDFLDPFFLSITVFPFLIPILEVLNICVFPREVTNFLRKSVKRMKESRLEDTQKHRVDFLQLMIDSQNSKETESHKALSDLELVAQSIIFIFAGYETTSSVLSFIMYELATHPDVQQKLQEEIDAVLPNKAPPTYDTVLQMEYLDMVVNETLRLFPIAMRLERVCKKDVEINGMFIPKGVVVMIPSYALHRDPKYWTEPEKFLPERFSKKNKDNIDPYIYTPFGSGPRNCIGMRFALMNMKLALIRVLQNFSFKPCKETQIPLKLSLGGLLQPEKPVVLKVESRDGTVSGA
(§2) The assay was carried out using P450-Glo™ Screening System (Cat.# V9770, V9790, V9880, V9890, V9910) from Promega (Madison, WI, USA). The system includes a membrane preparation containing recombinant human cytochrome P450 (CYP) enzyme, negative control membranes, a luminogenic substrate appropriate for the CYP enzyme, an NADPH regeneration system (containing nicotinamide adenine dinucleotide phosphate (NADP^+), glucose-6-phosphate, magnesium chloride (MgCl2) and glucose-6-phosphate dehydrogenase functioning to initiate and sustain the CYP450 reaction by maintaining a non-limiting NADPH system), reaction buffer, Luciferin Detection Reagent and Luciferin-Free Water. The membranes were prepared from baculovirus-infected insect cells and contained recombinant human CYP enzyme and P450 reductase (and cytochrome b5 for CYP2C9, 2C19 and 3A4). The negative control membranes were devoid of CYP activity. The dried powder of B. monnieri standardized methanolic extract containing 50% bacosides (batch No.: C92352/H) was purchased from Sami Labs Ltd. (Karnataka, India). Bacoside A, bacoside A3, bacopaside II, bacopaside X, bacopasaponin C and bacopaside I were purchased from Chromadex Inc. (Irvine, CA, USA).
(§3) The enzyme assay was performed in 96-well white bottom flat plates (Nunc, Roskilde, Denmark). The concentration of B. monnieri extract was 0.01–1000 µg/mL, and the positive controls and compounds (bacoside A, bacoside A3, bacopaside II, bacopaside X, bacopasaponin C and bacopaside I) were 0.01–100 µM. The concentration of the extracts, compounds and positive controls were prepared at 4× the original concentration. All extracts and compounds were dissolved in dimethyl sulfoxide (DMSO). The organic solvent was kept below 0.25% (v/v) in the incubation mixture. First, 12.5 μL of the 4× test compounds or positive controls (appropriate for each enzyme) were added to the “treated” wells. For the “untreated” (the values from these wells represent total CYP activity) and “minus-P450 control” wells (the values from these wells represent the CYP-independent background luminescence of the assay), 12.5 μL of vehicle (1% DMSO) was added. Then, 12.5 μL of the 4× control reaction mixture (containing membrane preparations devoid of CYP enzymes, the appropriate luminogenic substrate, and potassium phosphate buffer) were added to the minus-P450 control wells, and 12.5 μL of the 4× reaction mixture (containing human CYP membrane preparations, the appropriate luminogenic substrate, and potassium phosphate buffer) were added to all other wells. The plate was pre-incubated at room temperature for 10 min, and then 2× NADPH regeneration system was added to initiate the reaction. After incubation at room temperature for 30 min (45 min for CYP2D6), 50 μL of the reconstituted Luciferin Detection Reagent was added to stop the reaction and generate the luminescent signal. Before reading, the plate was incubated at room temperature for 20 min to stabilize the luminescent signal. The luminescence in all of the samples was measured using an Infinite F200 plate reader (Tecan, Männedorf, Switzerland).

In data set [2] the target is CYP2D6 (Homo sapiens, UniProt P10635). Nature of the data set: Luminescent P450-Glo recombinant human CYP2D6 inhibition assay.
Chain of CYP2D6 (P10635 whole entry): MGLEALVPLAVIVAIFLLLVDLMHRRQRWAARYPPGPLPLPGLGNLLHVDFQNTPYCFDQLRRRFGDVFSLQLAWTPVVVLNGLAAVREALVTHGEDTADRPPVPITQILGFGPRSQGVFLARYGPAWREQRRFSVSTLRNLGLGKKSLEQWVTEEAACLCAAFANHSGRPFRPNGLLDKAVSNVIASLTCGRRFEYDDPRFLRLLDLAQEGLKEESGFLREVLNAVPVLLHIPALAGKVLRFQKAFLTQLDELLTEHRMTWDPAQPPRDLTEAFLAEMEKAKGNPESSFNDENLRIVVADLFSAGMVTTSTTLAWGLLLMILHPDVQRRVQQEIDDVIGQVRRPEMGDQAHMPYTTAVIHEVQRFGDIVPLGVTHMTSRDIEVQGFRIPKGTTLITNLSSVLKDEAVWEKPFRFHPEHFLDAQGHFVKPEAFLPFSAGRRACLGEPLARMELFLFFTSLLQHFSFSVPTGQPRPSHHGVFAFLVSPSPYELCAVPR
Source text: as §1, §2, §3

In data set [3] the target is T1, CYP1A2 (Homo sapiens, UniProt P05177).
T1 sequence (P05177 2-516 limits assumed): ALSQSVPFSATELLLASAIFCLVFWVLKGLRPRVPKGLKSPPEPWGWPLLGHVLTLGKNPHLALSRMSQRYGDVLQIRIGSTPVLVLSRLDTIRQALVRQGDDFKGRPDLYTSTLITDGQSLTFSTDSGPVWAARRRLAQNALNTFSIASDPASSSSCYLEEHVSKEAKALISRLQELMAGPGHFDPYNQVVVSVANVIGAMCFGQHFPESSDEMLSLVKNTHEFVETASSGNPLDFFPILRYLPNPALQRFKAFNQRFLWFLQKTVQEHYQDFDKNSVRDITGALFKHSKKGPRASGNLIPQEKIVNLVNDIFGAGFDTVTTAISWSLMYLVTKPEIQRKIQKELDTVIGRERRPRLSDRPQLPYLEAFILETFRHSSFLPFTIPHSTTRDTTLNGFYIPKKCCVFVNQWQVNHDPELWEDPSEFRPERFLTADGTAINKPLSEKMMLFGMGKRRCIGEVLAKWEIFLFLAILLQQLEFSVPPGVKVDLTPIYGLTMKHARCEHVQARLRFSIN
As to the kind of experiment: Luminescent P450-Glo recombinant human CYP1A2 inhibition assay.
Source text: as §1, §2, §3

Data set [4] concerns the target CYP2C9 (Homo sapiens, UniProt P11712). Nature of the data set: Luminescent P450-Glo recombinant human CYP2C9 inhibition assay.
Source text: as §1, §2, §3

The target of data set [5] is CYP2C19 (Homo sapiens, UniProt P33261). Nature of the data set: Luminescent P450-Glo recombinant human CYP2C19 inhibition assay.
Chain of CYP2C19 (P33261 whole entry): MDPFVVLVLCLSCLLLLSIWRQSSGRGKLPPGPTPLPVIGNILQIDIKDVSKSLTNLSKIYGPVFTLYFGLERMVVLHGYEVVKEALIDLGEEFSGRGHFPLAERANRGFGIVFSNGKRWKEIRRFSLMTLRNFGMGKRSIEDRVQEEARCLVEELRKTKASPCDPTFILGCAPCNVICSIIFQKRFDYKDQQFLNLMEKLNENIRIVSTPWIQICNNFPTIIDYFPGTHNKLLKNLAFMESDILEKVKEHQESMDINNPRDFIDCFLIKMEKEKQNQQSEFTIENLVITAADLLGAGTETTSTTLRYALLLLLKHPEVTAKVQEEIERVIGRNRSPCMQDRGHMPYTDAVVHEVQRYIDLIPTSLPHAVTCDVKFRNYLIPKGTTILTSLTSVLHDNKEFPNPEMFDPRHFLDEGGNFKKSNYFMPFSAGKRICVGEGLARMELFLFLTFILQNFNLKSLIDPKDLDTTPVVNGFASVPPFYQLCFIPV
Source text: as §1, §2, §3

Chain of CYP2C9 (P11712 whole entry): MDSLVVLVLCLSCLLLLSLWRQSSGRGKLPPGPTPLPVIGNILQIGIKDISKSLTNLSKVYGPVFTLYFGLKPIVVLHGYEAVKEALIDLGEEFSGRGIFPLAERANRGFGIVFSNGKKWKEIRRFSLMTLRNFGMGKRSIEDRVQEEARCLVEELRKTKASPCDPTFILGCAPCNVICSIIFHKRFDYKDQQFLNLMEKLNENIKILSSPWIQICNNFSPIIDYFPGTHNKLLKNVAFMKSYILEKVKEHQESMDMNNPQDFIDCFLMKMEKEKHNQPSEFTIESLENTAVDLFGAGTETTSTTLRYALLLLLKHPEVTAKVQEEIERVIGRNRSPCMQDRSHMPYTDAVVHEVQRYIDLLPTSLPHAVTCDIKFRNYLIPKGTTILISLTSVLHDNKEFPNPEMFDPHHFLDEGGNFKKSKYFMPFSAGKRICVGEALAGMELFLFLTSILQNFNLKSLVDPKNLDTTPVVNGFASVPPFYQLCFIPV

Broadly, the IC50 is the point on the concentration scale where inhibition reaches its midpoint. As for `CC(C)=CC1COC23CC4(CO2)C(CCC2C5(C)CCC(OC6OC(CO)C(O)C(OC7OC(CO)C(O)C(O)C7O)C6OC6OC(CO)C(O)C6O)C(C)(C)C5CCC24C)C3C1(C)O` (stereo not drawn) [bacopaside II], the concentration for half-maximal inhibition (IC50) in data set [1], in data set [2], in data set [3], in data set [4] and in data set [5] was over 100 µM in each case.
Consider `CC(C)=CC1COC23CC4(CO2)C(CCC2C5(C)CCC(OC6OCC(O)C(OC7OC(COS(=O)(=O)O)C(O)C(O)C7O)C6OC6OC(CO)C(O)C6O)C(C)(C)C5CCC24C)C3C1(C)O` (stereo not drawn) [bacopaside I], for which the IC50 in data set [1], in data set [2], in data set [3], in data set [4] and in data set [5] was over 100 µM throughout.
As for `CC(C)=C[C@@H]1CO[C@]23C[C@]4(CO2)[C@H](CC[C@@H]2[C@@]5(C)CC[C@H](O[C@@H]6OC[C@H](O)[C@H](O[C@@H]7O[C@H](CO)[C@@H](O)[C@H](O)[C@H]7O)[C@H]6O[C@@H]6O[C@@H](CO)[C@H](O)[C@H]6O)C(C)(C)[C@@H]5CC[C@]24C)[C@H]3[C@@]1(C)O` [bacopasaponin C], the concentration for half-maximal inhibition (IC50) in data set [1], in data set [2], in data set [3], in data set [4] and in data set [5] was over 100 µM in each case.
Regarding `CC(C)=C[C@H]1C[C@](C)(O)[C@@H]2[C@H]3CC[C@@H]4[C@@]5(C)CC[C@H](O[C@@H]6OC[C@H](O)[C@H](O[C@@H]7O[C@H](CO)[C@@H](O)[C@H](O)[C@H]7O)[C@H]6O[C@@H]6O[C@@H](CO)[C@H](O)[C@H]6O)C(C)(C)[C@@H]5CC[C@@]4(C)[C@@]34CO[C@@]2(C4)O1` [bacopaside X], the half-maximal inhibitory concentration (IC50) in data set [1], in data set [2], in data set [3], in data set [4] and in data set [5] was over 100 µM throughout.
As to `CC(C)=C[C@H]1C[C@](C)(O)[C@@H]2[C@H]3CC[C@@H]4[C@@]5(C)CC[C@H](O[C@@H]6O[C@H](CO)[C@@H](O)[C@H](O[C@@H]7O[C@H](CO)[C@@H](O)[C@H](O)[C@H]7O)[C@H]6O[C@@H]6O[C@@H](CO)[C@H](O)[C@H]6O)C(C)(C)[C@@H]5CC[C@@]4(C)[C@@]34CO[C@@]2(C4)O1` [bacoside A3], the IC50 in data set [1], in data set [2], in data set [3], in data set [4] and in data set [5] was over 100 µM each time. In data set [1] (concentrations up to 100 µM), the “Inhibition of CYP3A4 in words” value is listed as “negligible inhibition”. For the same compound, in data set [2] (concentrations up to 100 µM), the “Inhibition of CYP2D6 in words” value was “negligible inhibition”. In addition, in data set [3] (concentrations up to 100 µM), the “Inhibition of CYP1A2 in words” value is “negligible inhibition”. Moreover, in data set [4] (concentrations up to 100 µM), the “Inhibition of CYP2C9 in words” value is given as “negligible inhibition”. For the same compound, in data set [5] (concentrations up to 100 µM), the “Inhibition of CYP2C19 in words” value was “negligible inhibition”.
